Reference: patent US20210213104A1, “GLUCAGON AND GLP-1 CO-AGONISTS FOR THE TREATMENT OF CHRONIC KIDNEY DISEASE AND DIABETIC KIDNEY DISEASE IN TYPE 2 DIABETES” (MEDIMMUNE LIMITED, priority 2020, published 2021)

Tested on: subjects with T2DM and renal impairment
Assay: Phase 2a: continuous glucose monitoring (CGM)
Assay type: in vivo, human
Settings: ITT; for Average CGM Glucose Over 7-Day Periods, Difference in LS Mean Change (vs Placebo) / Average CGM Glucose Over 7-Day Periods, LS Mean Change / Percentage of time CGM Glucose in Clinically Significant Hypoglycemia (<54 mg/dL), Difference in LS Mean Change (vs Placebo) / Percentage of time CGM Glucose in Clinically Significant Hypoglycemia (<54 mg/dL), LS Mean Change / Percentage of time CGM Glucose in Hyperglycemia (>180 mg/dL), Difference in LS Mean Change (vs Placebo) / Percentage of time CGM Glucose in Hyperglycemia (>180 mg/dL), LS Mean Change / Percentage of time CGM Glucose in Hypoglycemia (<70 mg/dl), Difference in LS Mean Change (vs Placebo) / Percentage of time CGM Glucose in Hypoglycemia (<70 mg/dl), LS Mean Change / Average CGM Glucose Over 7-Day Periods, Change from Baseline to End of Dosing Period, Mean / Average CGM Glucose Over 7-Day Periods, Change from Baseline to End of Dosing Period, Median / Percentage of time CGM Glucose in Hyperglycemia (>180 mg/dL), Change from Baseline to End of Dosing Period, Mean / Percentage of time CGM Glucose in Hyperglycemia (>180 mg/dL), Change from Baseline to End of Dosing Period, Median: baseline Days −8 to −2; for Average CGM Glucose Over 7-Day Periods, Difference in LS Mean Change (vs Placebo) / Average CGM Glucose Over 7-Day Periods, LS Mean Change / Percentage of time CGM Glucose in Clinically Significant Hypoglycemia (<54 mg/dL), Difference in LS Mean Change (vs Placebo) / Percentage of time CGM Glucose in Clinically Significant Hypoglycemia (<54 mg/dL), LS Mean Change / Percentage of time CGM Glucose in Hyperglycemia (>180 mg/dL), Difference in LS Mean Change (vs Placebo) / Percentage of time CGM Glucose in Hyperglycemia (>180 mg/dL), LS Mean Change / Percentage of time CGM Glucose in Hypoglycemia (<70 mg/dl), Difference in LS Mean Change (vs Placebo) / Percentage of time CGM Glucose in Hypoglycemia (<70 mg/dl), LS Mean Change / Time in target range, LS Mean Change: ANCOVA; for Time in target range, LS Mean Change: 300 μg Dose (Days 26 to 32)
Experimental: Cotadutide was titrated from 50 μg up to 300 μg and administered once daily by subcutaneous (SC) injection over 32 days.
Cotadutide was administered at 50 μg once daily for 4 days, followed by 100 μg daily for 7 days, 200 μg daily for 7 days, and 300 μg daily for 14 days (n=20). Placebo was administered one daily for 32 days (n=20). Cotadutide and placebo were administered in the morning. Dosing commenced following predose baseline vital signs, blood tests (including HbA1c), an electrocardiogram (ECG), body weight measurement, and bioimpedance spectroscopy (BIS). Subjects then returned for daily dosing or remained overnight locally until Day 5, and thereafter, had visits at weekly intervals until a maintenance dose of 300 μg was established. Thus, Cotadutide or placebo was administered at the study site by study personal for the first four doses and on site on Days 5, 12, 19, and 32. At all other times, subjects preformed dosing at home.
A Freestyle Libre® Pro CGM device was used to measure interstitial glucose levels. […] Data generated by CGM was used at visits to adjust insulin doses and other treatments.
The CGM sensor, which is a small plastic circular device of 35 mm diameter and 5 mm depth, was applied to the back of the upper arm. Subjects wore the CGM sensor continuously up until the time of a sensor change, which was to occur within 14 days, and they were advised that they could bathe and shower, and swim in up to 3 m depth for up to 30 minutes while wearing the CGM sensor. When the CGM sensor was removed, a new CGM sensor could be reapplied, ideally close to the original site, but with the subject's site preference taken into account. CGM sensors were single-use only.
If a subject was unable to tolerate wearing the CGM sensor for the entire duration of the study, the sensor was removed; but the subject was to remain in the study with or without continued CGM and could instead be instructed to monitor capillary plasma glucose measurements four times per day (before meals and before bedtime) and record these levels in the diary provided.
Subjects underwent continuous glucose monitoring (CGM) starting from Day −14 to Day 40 (±5 days), with sensor changes within 14-day intervals. CGM readings were used to analyze change in average CGM glucose and glucose AUC7 d, coefficient of variation as a marker of glycemic variability, and time spent in target glucose range and hypoglycemia, to enable comparison across different dose levels.

SMILES: CCCCCCCCCCCCCCCC(=O)N[C@@H](CCC(=O)NCCCC[C@H](NC(=O)[C@H](CC(=O)O)NC(=O)[C@H](CO)NC(=O)[C@@H](NC(=O)[C@H](Cc1ccccc1)NC(=O)[C@@H](NC(=O)CNC(=O)[C@H](CCC(N)=O)NC(=O)[C@H](CO)NC(=O)[C@@H](N)Cc1c[nH]cn1)[C@@H](C)O)[C@@H](C)O)C(=O)N[C@@H](CO)C(=O)N[C@@H](CCC(=O)O)C(=O)N[C@@H](Cc1ccc(O)cc1)C(=O)N[C@@H](CC(C)C)C(=O)N[C@@H](CC(=O)O)C(=O)N[C@@H](CO)C(=O)N[C@@H](CCC(=O)O)C(=O)N[C@@H](CCCNC(=N)N)C(=O)N[C@@H](C)C(=O)N[C@@H](CCCNC(=N)N)C(=O)N[C@@H](CC(=O)O)C(=O)N[C@@H](Cc1ccccc1)C(=O)N[C@H](C(=O)N[C@@H](C)C(=O)N[C@@H](Cc1c[nH]c2ccccc12)C(=O)N[C@@H](CC(C)C)C(=O)N[C@@H](CCC(=O)O)C(=O)N[C@@H](C)C(=O)NCC(=O)NCC(=O)O)C(C)C)C(=O)O [Cotadutide]
- Average CGM Glucose Over 7-Day Periods, End of Dosing Period, Mean (300 μg (Days 19 to 25)): 124.894 mg/dL
- Average CGM Glucose Over 7-Day Periods, End of Dosing Period, Median (300 μg (Days 19 to 25)): 123.277 mg/dL
- Percentage of time CGM Glucose in Hyperglycemia (>180 mg/dL), End of Dosing Period, Mean (300 μg (Days 19 to 25)): 10.65%
- Percentage of time CGM Glucose in Hyperglycemia (>180 mg/dL), End of Dosing Period, Median (300 μg (Days 19 to 25)): 5.81%
- Average CGM Glucose Over 7-Day Periods, Difference in LS Mean Change (vs Placebo) (300 μg (Days 19 to 25)): -48.97 mg/dL
- Average CGM Glucose Over 7-Day Periods, LS Mean Change (300 μg (Days 19 to 25)): -38.75 mg/dL
- Percentage of time CGM Glucose in Clinically Significant Hypoglycemia (<54 mg/dL), Difference in LS Mean Change (vs Placebo) (300 μg (Days 19 to 25)): 4.57%
- Percentage of time CGM Glucose in Clinically Significant Hypoglycemia (<54 mg/dL), LS Mean Change (300 μg (Days 19 to 25)): 3.58%
- Percentage of time CGM Glucose in Hyperglycemia (>180 mg/dL), Difference in LS Mean Change (vs Placebo) (300 μg (Days 19 to 25)): −23.47%
- Percentage of time CGM Glucose in Hyperglycemia (>180 mg/dL), LS Mean Change (300 μg (Days 19 to 25)): −23.47%
- Percentage of time CGM Glucose in Hypoglycemia (<70 mg/dl), Difference in LS Mean Change (vs Placebo) (300 μg (Days 19 to 25)): 4.25%
- Percentage of time CGM Glucose in Hypoglycemia (<70 mg/dl), LS Mean Change (300 μg (Days 19 to 25)): 3.39%
- Average CGM Glucose Over 7-Day Periods, Change from Baseline to End of Dosing Period, Mean (300 μg (Days 19 to 25)): -38.623 mg/dL
- Average CGM Glucose Over 7-Day Periods, Change from Baseline to End of Dosing Period, Median (300 μg (Days 19 to 25)): -35.498 mg/dL
- Percentage of time CGM Glucose in Hyperglycemia (>180 mg/dL), Change from Baseline to End of Dosing Period, Mean (300 μg (Days 19 to 25)): −23.50%
- Percentage of time CGM Glucose in Hyperglycemia (>180 mg/dL), Change from Baseline to End of Dosing Period, Median (300 μg (Days 19 to 25)): −19.64%
- Average CGM Glucose Over 7-Day Periods, End of Dosing Period, Mean (300 μg (Days 26 to 32)): 125.382 mg/dL
- Average CGM Glucose Over 7-Day Periods, End of Dosing Period, Median (300 μg (Days 26 to 32)): 121.594 mg/dL
- Percentage of time CGM Glucose in Hyperglycemia (>180 mg/dL), End of Dosing Period, Mean (300 μg (Days 26 to 32)): 10.00%
- Percentage of time CGM Glucose in Hyperglycemia (>180 mg/dL), End of Dosing Period, Median (300 μg (Days 26 to 32)): 4.38%
- Average CGM Glucose Over 7-Day Periods, Difference in LS Mean Change (vs Placebo) (300 μg (Days 26 to 32)): -47.89 mg/dL
- Average CGM Glucose Over 7-Day Periods, LS Mean Change (300 μg (Days 26 to 32)): -41.37 mg/dL
- Percentage of time CGM Glucose in Clinically Significant Hypoglycemia (<54 mg/dL), Difference in LS Mean Change (vs Placebo) (300 μg (Days 26 to 32)): 1.58%
- Percentage of time CGM Glucose in Clinically Significant Hypoglycemia (<54 mg/dL), LS Mean Change (300 μg (Days 26 to 32)): 0.13%
- Percentage of time CGM Glucose in Hyperglycemia (>180 mg/dL), Difference in LS Mean Change (vs Placebo) (300 μg (Days 26 to 32)): −18.94%
- Percentage of time CGM Glucose in Hyperglycemia (>180 mg/dL), LS Mean Change (300 μg (Days 26 to 32)): −25.15%
- Percentage of time CGM Glucose in Hypoglycemia (<70 mg/dl), Difference in LS Mean Change (vs Placebo) (300 μg (Days 26 to 32)): 4.91%
- Percentage of time CGM Glucose in Hypoglycemia (<70 mg/dl), LS Mean Change (300 μg (Days 26 to 32)): 3.09%
- Average CGM Glucose Over 7-Day Periods, Change from Baseline to End of Dosing Period, Mean (300 μg (Days 26 to 32)): -41.401 mg/dL
- Average CGM Glucose Over 7-Day Periods, Change from Baseline to End of Dosing Period, Median (300 μg (Days 26 to 32)): -51.123 mg/dL
- Percentage of time CGM Glucose in Hyperglycemia (>180 mg/dL), Change from Baseline to End of Dosing Period, Mean (300 μg (Days 26 to 32)): −25.49%
- Percentage of time CGM Glucose in Hyperglycemia (>180 mg/dL), Change from Baseline to End of Dosing Period, Median (300 μg (Days 26 to 32)): −23.12%
- Time in target range, LS Mean Change (Insulin Dose < 20 U/day): 17.13%
- Time in target range, LS Mean Change (Insulin Dose ≥ 20 U/day): 10.40%
- Time in target range, LS Mean Change (Total): 14.79%
